We go through three compounds from US5593965A, “Anti-tumor effects of GnRH-III” (Creighton University, priority 1994, dated 1997).

Entries after “also recorded” stand apart in the source; their conditions may differ.

Series [1] has as its system ovulation in rats. As to the kind of experiment: In vivo assay of inhibition of ovulation (chemical castration). Details: species or system rat. On the procedure:
Adult female rates(Wistar-R-Amsterdam), 200-250 grams, housed under controlled lighting (light period 05:00 to 19:00) with free access to pelleted food and tap water were used herein. For the in vivo assay of inhibition of ovulation, aliquots of peptide solutions were injected subcutaneously into female rats at noon on the day of proestrous for single-dose tests and every day at noon for long term tests. Only rats which had previously shown three consecutive regular 4-day cycles, as indicated by vaginal smears test, were used herein. Animals were ovariectomized on the day of the first diestrous after the injection. Oviducts were prepared under stereo-microscope and tested for ova as is well known in the art.

The next series has as its system MDA-MB-231 cell line. In kind it is cell-based, human. Conditions: dose range 1-50 μM. The source says: (§1) Two human breast cancer cell lines were used. They were: (1) the estrogen receptor positive MCF-7 cell line and (2) the estrogen receptor negative MDA-MB-231 cell line. Both cell lines contain GnRH receptors. These cell lines were used to illustrate the anticancer effects of GnRH-III. The cells were maintained in Dulbecco-modified Eagle-minimal essential medium (DMEM, GIBCO) containing 10% fetal calf serum (10% FCS). The clonogenic assay provides information on the cell damaging effects of a substance in a dose-dependent manner. Three hundred cells were transferred into 35 mm Petri dishes in 2.5 ml of medium. On the following day, the cultures were treated with 1, 5, 10, 20, 30 and 50 μM doses of GnRH-III. Colonies which developed from specific cells were stained with crystal violet and counted on days 8 to 12 after treatment. Colony numbers of untreated control cultures were counted for comparison.

Another series deals with MCF-7 cell line. Format: cell-based, human. Conditions: dose range 1-50 μM.
From the text: as §1

Another series relates to rat pituitary cells. As to the kind of experiment: Superfused rat pituitary cell system (LH release). In kind it is cell-based. The procedure: The GnRH activity of the peptides were assayed by using the superfused rat pituitary cell system as described by Vigh and Schally, Peptides, 5:241-247, Suppl. 1, (1984) and Csernus and Schally, Neuroendocrine Research Methods, Greenstein, B., ed., Harwood Academic Publishers, London, pp66-102 (1985). Mixed cell populations of four regularly cycling female rats, at random stages of the estrous cycle, were used in each chamber of a superfusion apparatus. The cells were perfused for 12 hours with Medium 199 (Sigma) at a flow rate of 20 ml/hour, prior to administration of the peptides. […] The peptide-containing solutions are prepared from the stock solution immediately before use. At the beginning of each experiment, cells were rechallenged with potassium to check the secretability of Luteinizing Hormone, independent of the participation of specific hormone recptors. Fractions, 1 ml per 3 minutes, were collected and the concentration of Luteinzing Hormone was determined by radioimmunoassay. NIAMD radioimmunoassay kits were used for the Luteinizing Hormone and Follicle Stimulating Hormone assays. The superfusion data was analyzed by the computer program of Csernus and Schally (1985).

The subject of series [2] is human breast cancer cell lines. In kind it is cell-based.
From the text: as §1, with “comparison. The antiproliferation assay used herein measures the inhibition of cell proliferation due to drug exposure. Loose subconfluent cultures (6×10^5 -1×10^6 cells) in 100 mm Petri dishes were initiated and treated with 1, 5, 10, 20, 30 and 50 μM doses of GnRH-III on every other day for various periods of time. On day 6, the cell numbers of both control and treated cultures were counted in a Neubauer-type hemocytometer.” for “comparison.”

Series [3] has as its system ovulation in rats. The settings on record: cited from earlier work.

Consider `NCCCC[C@H](NC(=O)[C@H](Cc1c[nH]c2ccccc12)NC(=O)[C@H](CC(=O)O)NC(=O)[C@H](Cc1c[nH]cn1)NC(=O)[C@H](CO)NC(=O)[C@H](Cc1c[nH]c2ccccc12)NC(=O)[C@H](Cc1c[nH]cn1)NC(=O)[C@@H]1CCC(=O)N1)C(=O)N1CCC[C@H]1C(=O)NCC(N)=O` [GnRH-III], for which the influence on ovulation entry with ovulation in rats [1] (female rats, subcutaneous, doses of 10^-9 to 10^-7 M) was “no influence on ovulation”. Moreover, the function of gonads result in the series with ovulation in rats [1] (rats) is “did not influence the function of gonads; also recorded: does not influence gonadal function”. Further, in the series with ovulation in rats [1] (rats, repeated injections), the histology of ovary entry is reported as “did not change histology of ovary; also recorded: did not change the histological character of ovary”. For the same compound, the colony formation entry in the series on MDA-MB-231 cell line and in the series with MCF-7 cell line was “inhibited colony formation” throughout. The “LH release at high concentration” value in the series on rat pituitary cells (10^-6 M) is reported as “did cause LH release”. For the same compound, the “agonist/antagonist character in mammalian pituitary gland” value in the series with rat pituitary cells (doses of 10^-9 to 10^-7 M) is “neither agonist, nor antagonist”. Moreover, the “decrease in cloning efficiency” value in series [2] (at 30 μM) is 65-80%. The “anticancer activity compared with other GnRH analogs” value in series [2] (in vitro, human breast cancer cell lines) was “surpass that of the well known agonists Buserelin, Decapeptyl and Ovurelin, and to approximate that of the antagonists SB-30 and MI-1544”.

Take “[B-Asp(α-diethylamide^6 ],Gln^8)GnRH [TH-332, reference compound]”: the colony formation result in the series with MDA-MB-231 cell line and in the series on MCF-7 cell line was “did not inhibit colony formation” throughout.

For the compound “human GnRH: hypothalamic peptide hormone stimulating release of Luteinizing Hormone and Follicle Stimulating Hormone (QHWSYGLRPG; Gonadoliberin-1; UniProt P01148 24-33, looked up) [reference compound]”, in the series with rat pituitary cells (doses 10^-9 -10^-7 M), the “induction of LH release” value is “did not induce Luteinizing Hormone (LH)-release” and the “inhibition of LH release induced by native GnRH” value is recorded as “neither did it inhibit the LH-release induced by native GnRH”. Further, the “effective doses on ovulation” value in the series on ovulation in rats [3] is reported as 10^-9 to 10^-7 M.
